# Source: PMC3906059, “Activation and Inhibition of TMEM16A Calcium-Activated Chloride Channels” (PLoS ONE, 2014)
# Where “and” joins values, the source holds several entries; their conditions need not be identical. Equal values may be shown once. Entries after “also recorded” stand apart in the source; their conditions may differ.
# How the values were obtained:
# TMEM16A (ANO1) [1] = target: T1, TMEM16A (ANO1) (Mus musculus, UniProt Q8BHY3); assay: Anion permeability of the ANO1 pore, Erev under bi-ionic conditions; type: cell-based; conditions: for permeability ratio PX/PCl: Ca^2+-activated current, calculated from Erev after junction potential correction; for zero current potential of I–V curve: example ramp −80 to +80 mV, [Ca^2+] = 20 µM, intracellular salt 140 mM (NaHCO3 130 mM + 10 mM NaCl)
# T1 construct: We subcloned the coding region of the cDNA into pEGFP-N3 vector; expressed in transfected cells; host or cells: HEK293 cells
# T1 sequence (Q8BHY3 1-956 isoform Q8BHY3-2): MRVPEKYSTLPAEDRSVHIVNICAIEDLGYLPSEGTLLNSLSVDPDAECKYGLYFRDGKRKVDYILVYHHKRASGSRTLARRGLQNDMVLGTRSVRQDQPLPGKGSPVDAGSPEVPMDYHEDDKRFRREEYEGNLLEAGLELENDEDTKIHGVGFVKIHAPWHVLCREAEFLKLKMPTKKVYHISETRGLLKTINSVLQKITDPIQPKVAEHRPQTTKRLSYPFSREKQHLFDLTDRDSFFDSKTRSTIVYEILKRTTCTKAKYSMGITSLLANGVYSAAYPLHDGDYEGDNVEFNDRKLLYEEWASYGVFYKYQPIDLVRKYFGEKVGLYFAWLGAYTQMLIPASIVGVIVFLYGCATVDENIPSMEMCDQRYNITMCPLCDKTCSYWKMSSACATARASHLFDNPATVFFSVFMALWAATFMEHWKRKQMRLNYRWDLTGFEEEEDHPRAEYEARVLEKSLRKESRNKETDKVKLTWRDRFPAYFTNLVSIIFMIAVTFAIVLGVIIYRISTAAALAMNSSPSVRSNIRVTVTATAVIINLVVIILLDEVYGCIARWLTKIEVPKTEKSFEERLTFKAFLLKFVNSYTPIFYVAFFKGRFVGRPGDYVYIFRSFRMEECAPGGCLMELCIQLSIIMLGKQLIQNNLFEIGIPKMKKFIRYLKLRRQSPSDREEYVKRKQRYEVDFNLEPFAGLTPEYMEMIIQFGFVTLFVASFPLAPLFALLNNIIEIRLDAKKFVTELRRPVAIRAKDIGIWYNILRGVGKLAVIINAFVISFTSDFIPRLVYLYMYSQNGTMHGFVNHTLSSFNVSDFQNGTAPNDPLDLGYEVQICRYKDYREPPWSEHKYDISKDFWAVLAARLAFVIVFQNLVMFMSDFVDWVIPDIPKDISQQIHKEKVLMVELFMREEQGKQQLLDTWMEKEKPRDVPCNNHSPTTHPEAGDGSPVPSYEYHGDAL
# Description: (§1) The mouse TMEM16A cDNA (NCBI reference sequence: NM_001242349.1) encoding ANO1 CaCC was a generous gift from Dr. Lily Jan. We subcloned the coding region of the cDNA into pEGFP-N3 vector (Clontech Laboratories, Inc.), resulting in a construct in which an enhanced green fluorescent protein (eGFP) was attached to the C-terminus of the ANO1 protein. The sequence was confirmed by commercially-available DNA sequencing service. This eGFP-attached ANO1 cDNA construct was used for channel expression throughout the study. The cDNA was transfected into human embryonic kidney (HEK) 293 cells using lipofectamine transfection methods, [42], [43]. A fluorescent light source and a GFP filter set (Chroma Technology Co.) in the DM IRB inverted microscope (Leica Microsystems) were used to identify transfected cells expressing channel proteins. Electrophysiological experiments were performed ∼24 to 72 hours after transfection.
# The anion permeability of the ANO1 pore was examined under bi-ionic conditions in which the extracellular solution contained 140 mM NaCl (the zero-Ca^2+ solution). The intracellular solution contained 140 mM sodium salts of various anions with the exception of the HCO3 ^− experiment in which the solution contained 130 mM NaHCO3 and 10 mM NaCl. In all intracellular solutions for the bi-ionic experiments, 0.1 mM EGTA and 0.12 mM total Ca^2+ or Sr^2+ were added to the solution to activate the ANO1 channel (Free [Ca^2+] or [Sr^2+] were saturating concentrations). Erev of the open channel was measured in two ways. First, under voltage-clamp configuration, a 3-sec voltage ramp from −80 mV to +80 mV was applied and the Erev of the leak-subtracted I-V curve was then determined (see Fig. 5 A & B). The second method employed the current-clamp (I = 0) mode in which the patch was exposed to divalent cations throughout the recording (Fig. 5 C and Fig. 6 A & C). When the intracellular solution contained the same concentration of Cl^− as that in the extracellular side, the recorded voltage (EI = 0) was normally close to 0 mV. When the intracellular solution was replaced by the one containing other anions, the value of EI = 0 changed to a new value corresponding to the Erev of the new ionic condition. It is important to point out that the measurement of Erev can be imprecise if the amplitude of the ANO1 current is not within a proper range. Therefore, in permeability ratio measurements we only used the data obtained from patches with a maximal current in the range of 100 pA–1000 pA at +40 mV. All the presented Erev values (and the recording traces for measuring Erev) are not corrected for junction potential difference between solutions because the junction potentials are relatively small. However, the reported permeability ratios were calculated based on the junction potential-corrected Erev. The correction for the junction potential results in very small changes in the calculated permeability ratios.
# The permeability ratios of various anions versus Cl^− (PX/PCl, where X represents various anions) were calculated using the Erev obtained from bi-ionic experiments according to the following equation (eq. 3), PX/PCl = exp[Erev/(RT/F)], where R, T, and F are the gas constant, absolute temperature, and Faraday constant, respectively. Comparing the difference between Erev’s of the Ca^2+- and Sr^2+-activated current was performed using the pair t test at the significant level of 0.05.
# TMEM16A (ANO1) [2] = target: T1, TMEM16A (ANO1); assay: Activation of ANO1 current by divalent cations, excised inside-out patch with fast solution exchange; type: cell-based
# Description: as §1
# All chemicals were reagent grade. Regular salts (such as NaCl, NaOH, CaCl2, SrCl2, BaCl2, MgCl2 or sodium salts of various anions) were purchased from Fisher Chemicals (Fair Lawn, NJ), J. T. Baker (Phillipsburg, NJ) or Sigma Chemicals Co. (St. Louis, MO). EGTA, HEPES, and NFA were from Sigma Chemicals Co. Excised inside-out patch-clamp recordings were performed throughout the study. The extracellular (pipette) solution in all experiments contained: 140 mM NaCl, 10 mM HEPES, 0.1 mM EGTA, pH = 7.4. The regular intracellular solution contained 10 mM HEPES and 140 mM sodium salt of Cl^− or other anions. Various concentrations of divalent cations were made by adding certain total concentrations of divalent cations (Cl^− salts) into the solution containing a defined concentration of EGTA. We defined the pipette solution as the “zero-Ca^2+” solution. A solution containing a saturating [Ca^2+] was made by adding 0.12 mM total [Ca^2+] into the aforementioned zero-Ca^2+ solution, resulting in a solution containing ∼20 µM free [Ca^2+]. For making non-saturating [Ca^2+] solutions, the solutions included 1 mM EGTA. To make solutions containing Sr^2+ and Ba^2+, only 0.1 mM EGTA was used. The pH of all solutions was adjusted to 7.4.
# Because of weak Mg^2+-EGTA binding, we referred the total [Mg^2+] as the free [Mg^2+]. The free [Ca^2+], [Sr^2+], and [Ba^2+] were calculated using the MaxChelator program (Ver1.2) kindly provided by Chris Patton from the Stanford University. This program was developed based on the binding constants available in the National Institute of Standard and Technology (NIST) between EGTA and these three divalent cations. Table S1, Table S2, and Table S3 list respectively the calculated free [Ca^2+], [Sr^2+], and [Ba^2+] used in this study. All added divalent cations were Cl^− salts. […] For example, in a solution containing 5 mM, 10 mM or 30 mM MgCl2, only 130 mM, 120 mM or 80 mM of NaCl, respectively, were added to the solution.
# The patch-clamp recording pipettes were fabricated from borosilicate glass capillaries (World Precision Instruments) using PP830 electrode puller (Narishige International). When filled with the pipette solution, the electrode resistance was ∼1.5–3 MΩ. The experiments were carried out at room temperature (20–23°C) using the Axopatch 200B amplifier controlled by the Digidata I/O converter and the pClamp9 software (Axon Instruments/Molecular Devices).
# Solution exchange was achieved using the SF-77 solution exchanger (Warner Instruments). After the excised inside-out patch mode was established, the tip of the patch pipette was positioned at the exit of the solution-delivery pipes of the SF-77 solution exchanger. The switch of solution pipes was controlled by a digital signal delivered from the Digidata 1320 digitizing board. […]
# CaCC of Xenopus oocytes = tested on: CaCC of Xenopus oocytes; parameters: method as in PMID 11279188; conditions: cited from earlier work
# TMEM16A (ANO1) [3] = target: T1, TMEM16A (ANO1); assay: Mg^2+ inhibition of Ca^2+-induced ANO1 current and shift of the Ca^2+-activation curve (Schild plot); type: cell-based
# Description: as §1
# All chemicals were reagent grade. Regular salts (such as NaCl, NaOH, CaCl2, SrCl2, BaCl2, MgCl2 or sodium salts of various anions) were purchased from Fisher Chemicals (Fair Lawn, NJ), J. T. Baker (Phillipsburg, NJ) or Sigma Chemicals Co. (St. Louis, MO). EGTA, HEPES, and NFA were from Sigma Chemicals Co. Excised inside-out patch-clamp recordings were performed throughout the study. The extracellular (pipette) solution in all experiments contained: 140 mM NaCl, 10 mM HEPES, 0.1 mM EGTA, pH = 7.4. The regular intracellular solution contained 10 mM HEPES and 140 mM sodium salt of Cl^− or other anions. Various concentrations of divalent cations were made by adding certain total concentrations of divalent cations (Cl^− salts) into the solution containing a defined concentration of EGTA. We defined the pipette solution as the “zero-Ca^2+” solution. A solution containing a saturating [Ca^2+] was made by adding 0.12 mM total [Ca^2+] into the aforementioned zero-Ca^2+ solution, resulting in a solution containing ∼20 µM free [Ca^2+]. For making non-saturating [Ca^2+] solutions, the solutions included 1 mM EGTA. […]
# Because of weak Mg^2+-EGTA binding, we referred the total [Mg^2+] as the free [Mg^2+]. The free [Ca^2+], [Sr^2+], and [Ba^2+] were calculated using the MaxChelator program (Ver1.2) kindly provided by Chris Patton from the Stanford University. […] Table S1, Table S2, and Table S3 list respectively the calculated free [Ca^2+], [Sr^2+], and [Ba^2+] used in this study. […]
# Solution exchange was achieved using the SF-77 solution exchanger (Warner Instruments). […] The recorded current is normally time-independent following fast solution exchange, but on infrequent occasions there is a slow increase of current. Therefore, we measured the current amplitude at the end of the solution exchange when the current amplitude reaches a steady-state maximal value. […]
# [4] = Ca^2+-activated current (20 µM), 140 mM extracellular NaCl, anion as intracellular sodium salt 140 mM (HCO3: 130 mM NaHCO3 + 10 mM NaCl), without junction potential correction, averaged
# [5] = Schild plot from K1/2,Ca in 0, 2, 5 and 10 mM Mg^2+
smiles,measurement,setting,value
"N[C@@H](CCC(=O)O)C(=O)[O-].[Na+] [glutamate, Na-glutamate]",Erev (bi-ionic potential),TMEM16A (ANO1) [1]; [4],< −80 mV
[Cl-].[Cl-].[Sr+2] [Sr^2+],difference of Erev between channels activated by Sr^2+ and Ca^2+,TMEM16A (ANO1) [1],1–2 mV
same,maximal ANO1 current activated by saturating divalent cation compared with Is induced by saturating [Ca^2+],"TMEM16A (ANO1) [2]; Is induced by 20 µM Ca^2+, ±40 mV",can activate the same maximal current; also recorded: activated the channel to the same maximal current level
same,Hill coefficient (n) of dose-response activation curve,TMEM16A (ANO1) [2]; values covering +40 and −40 mV,2–2.6 and ~2
same,EC50,"TMEM16A (ANO1) [2]; values covering +40 and −40 mV, read-out: K1/2 of ANO1 activation",5 to 10 µM and ~5 µM
O=S(=O)(O)c1cc(N=C=S)ccc1C=Cc1ccc(N=C=S)cc1S(=O)(=O)O [DIDS],voltage dependence of inhibition,CaCC of Xenopus oocytes,voltage dependent
O=C([O-])O.[Na+] [HCO3 ^−],Erev (bi-ionic potential),TMEM16A (ANO1) [1]; [4],−27.6±2.4 mV
same,permeability ratio PX/PCl,TMEM16A (ANO1) [1],~0.3
same,zero current potential of I–V curve,TMEM16A (ANO1) [1]; 140 mM extracellular NaCl,-27 mV
[Mg+2] [Mg^2+],IC50,"TMEM16A (ANO1) [3]; ANO1 current induced by 0.666 µM free Ca^2+, fit to eq. 2, read-out: apparent half-inhibition concentration",5400 µM
same,"[Mg^2+] that increases K1/2,Ca 2-fold (Schild plot)",TMEM16A (ANO1) [3]; [5],~2.5 mM
same,pMg at crossing of the horizontal axis of the Schild plot,TMEM16A (ANO1) [3]; [5],~2.6
same,Mg^2+ inhibition of ANO1 current activated by saturating [Ca^2+],"TMEM16A (ANO1) [3]; saturating [Ca^2+], 5 mM Mg^2+ (Fig. 4 C)",not observed; also recorded: not inhibited
same,ANO1 activation by Mg^2+,"TMEM16A (ANO1) [2]; up to 30 mM [Mg^2+], intracellular side",no ANO1 activation was detected; also recorded: unable to detect ANO1 current
O=[N+]([O-])[O-].[Na+] [NO3 ^−],Erev (bi-ionic potential),TMEM16A (ANO1) [1]; [4],32.9±1.1 mV
same,permeability ratio PX/PCl,TMEM16A (ANO1) [1],~3.5
same,Erev (bi-ionic potential),"TMEM16A (ANO1) [1]; current activated by 20 µM Sr^2+, current clamp (I = 0), without correcting for junction potential",31.3±0.5 mV
same,zero current potential of I–V curve,TMEM16A (ANO1) [1]; 140 mM extracellular NaCl,+33 mV
